Source: paper PMC10006169, “A phase I trial of LXS196, a protein kinase C (PKC) inhibitor, for metastatic uveal melanoma” (British Journal of Cancer, 2023)
Values joined by “and” are separate entries in the source; they are usually repeats but may differ in a detail not shown here. Identical values can stand only once.

Test system: patients with MUM
Experiment: Adverse events regardless of study drug relationship
Type: in vivo, human
Procedure: Routine safety assessments, including laboratory assessments, physical examinations, vital signs and electrocardiograms (ECGs), were conducted at regular intervals throughout the study and more frequently as needed following patient assessment by the treating physician. Adverse events (AEs) were assessed continuously according to the National Cancer Institute Common Terminology Criteria for Adverse Events (NCI-CTCAE) v4.03.

## CC1(N)CCN(c2cccnc2NC(=O)c2nc(-c3ncccc3C(F)(F)F)cnc2N)CC1 [LXS196]
All BID
  ALT increased, all grades: 9 (30.0) n (%)
  ALT increased, grade ≥3: 2 (6.7) n (%)
  AST increased, all grades: 8 (26.7) n (%)
  AST increased, grade ≥3: 3 (10.0) n (%)
  Abdominal pain upper, all grades: 3 (10.0) n (%)
  Abdominal pain upper, grade ≥3: 0 n (%)
  Asthenia, all grades: 7 (23.3) n (%)
  Asthenia, grade ≥3: 0 n (%)
  Blood creatinine increased, all grades: 5 (16.7) n (%)
  Blood creatinine increased, grade ≥3: 0 n (%)
  Constipation, all grades: 7 (23.3) n (%)
  Constipation, grade ≥3: 0 n (%)
  Decreased appetite, all grades: 5 (16.7) n (%)
  Decreased appetite, grade ≥3: 0 n (%)
  Dermatitis acneiform, all grades: 5 (16.7) n (%)
  Dermatitis acneiform, grade ≥3: 0 n (%)
  Diarrhoea, all grades: 17 (56.7) n (%)
  Diarrhoea, grade ≥3: 1 (3.3) n (%)
  Dry skin, all grades: 6 (20.0) n (%)
  Dry skin, grade ≥3: 0 n (%)
  Fatigue, all grades: 7 (23.3) n (%)
  Fatigue, grade ≥3: 0 n (%)
  Hypotension, all grades: 7 (23.3) n (%)
  Hypotension, grade ≥3: 1 (3.3) n (%)
  Nasopharyngitis, all grades: 3 (10.0) n (%)
  Nasopharyngitis, grade ≥3: 0 n (%)
  Nausea, all grades: 21 (70.0) n (%)
  Nausea, grade ≥3: 0 n (%)
  Neutropenia, all grades: 2 (6.7) n (%)
  Neutropenia, grade ≥3: 0 n (%)
  Oedema peripheral, all grades: 8 (26.7) n (%)
  Oedema peripheral, grade ≥3: 1 (3.3) n (%)
  Patients with ≥1 AE, all grades: 30 (100) n (%)
  Patients with ≥1 AE, grade ≥3: 15 (50.0) n (%)
  Rash, all grades: 6 (20.0) n (%)
  Rash, grade ≥3: 0 n (%)
  Vomiting, all grades: 11 (36.7) n (%)
  Vomiting, grade ≥3: 0 n (%)
All QD
  ALT increased, all grades: 9 (23.7) n (%)
  ALT increased, grade ≥3: 2 (5.3) n (%)
  AST increased, all grades: 5 (13.2) n (%)
  AST increased, grade ≥3: 2 (5.3) n (%)
  Abdominal pain upper, all grades: 4 (10.5) n (%)
  Abdominal pain upper, grade ≥3: 0 n (%)
  Asthenia, all grades: 8 (21.1) n (%)
  Asthenia, grade ≥3: 0 n (%)
  Blood creatinine increased, all grades: 3 (7.9) n (%)
  Blood creatinine increased, grade ≥3: 0 n (%)
  Constipation, all grades: 10 (26.3) n (%)
  Constipation, grade ≥3: 0 n (%)
  Decreased appetite, all grades: 5 (13.2) n (%)
  Decreased appetite, grade ≥3: 0 n (%)
  Dermatitis acneiform, all grades: 2 (5.3) n (%)
  Dermatitis acneiform, grade ≥3: 0 n (%)
  Diarrhoea, all grades: 20 (52.6) n (%)
  Diarrhoea, grade ≥3: 0 n (%)
  Dry skin, all grades: 3 (7.9) n (%)
  Dry skin, grade ≥3: 0 n (%)
  Fatigue, all grades: 12 (31.6) n (%)
  Fatigue, grade ≥3: 0 n (%)
  Hypotension, all grades: 8 (21.1) n (%)
  Hypotension, grade ≥3: 5 (13.2) n (%)
  Nasopharyngitis, all grades: 4 (10.5) n (%)
  Nasopharyngitis, grade ≥3: 0 n (%)
  Nausea, all grades: 27 (71.1) n (%)
  Nausea, grade ≥3: 1 (2.6) n (%)
  Neutropenia, all grades: 5 (13.2) n (%)
  Neutropenia, grade ≥3: 2 (5.3) n (%)
  Oedema peripheral, all grades: 5 (13.2) n (%)
  Oedema peripheral, grade ≥3: 0 n (%)
  Patients with ≥1 AE, all grades: 36 (94.7) n (%)
  Patients with ≥1 AE, grade ≥3: 14 (36.8) n (%)
  Rash, all grades: 4 (10.5) n (%)
  Rash, grade ≥3: 0 n (%)
  Vomiting, all grades: 15 (39.5) n (%)
  Vomiting, grade ≥3: 1 (2.6) n (%)
All patients
  ALT increased, all grades: 18 (26.5) n (%)
  ALT increased, grade ≥3: 4 (5.9) n (%)
  AST increased, all grades: 13 (19.1) n (%)
  AST increased, grade ≥3: 5 (7.4) n (%)
  Abdominal pain upper, all grades: 7 (10.3) n (%)
  Abdominal pain upper, grade ≥3: 0 n (%)
  Asthenia, all grades: 15 (22.1) n (%)
  Asthenia, grade ≥3: 0 n (%)
  Blood creatinine increased, all grades: 8 (11.8) n (%)
  Blood creatinine increased, grade ≥3: 0 n (%)
  Constipation, all grades: 17 (25.0) n (%)
  Constipation, grade ≥3: 0 n (%)
  Decreased appetite, all grades: 10 (14.7) n (%)
  Decreased appetite, grade ≥3: 0 n (%)
  Dermatitis acneiform, all grades: 7 (10.3) n (%)
  Dermatitis acneiform, grade ≥3: 0 n (%)
  Diarrhoea, all grades: 37 (54.4) n (%)
  Diarrhoea, grade ≥3: 1 (1.5) n (%)
  Dry skin, all grades: 9 (13.2) n (%)
  Dry skin, grade ≥3: 0 n (%)
  Fatigue, all grades: 19 (27.9) n (%)
  Fatigue, grade ≥3: 0 n (%)
  Hypotension, all grades: 15 (22.1) n (%)
  Hypotension, grade ≥3: 6 (8.8) n (%)
  Nasopharyngitis, all grades: 7 (10.3) n (%)
  Nasopharyngitis, grade ≥3: 0 n (%)
  Nausea, all grades: 48 (70.6) n (%)
  Nausea, grade ≥3: 1 (1.5) n (%)
  Neutropenia, all grades: 7 (10.3) n (%)
  Neutropenia, grade ≥3: 2 (2.9) n (%)
  Oedema peripheral, all grades: 13 (19.1) n (%)
  Oedema peripheral, grade ≥3: 1 (1.5) n (%)
  Patients with ≥1 AE, all grades: 66 (97.1) n (%)
  Patients with ≥1 AE, grade ≥3: 29 (42.6%) n (%) and 29 (42.6) n (%)
  Rash, all grades: 10 (14.7) n (%)
  Rash, grade ≥3: 0 n (%)
  Vomiting, all grades: 26 (38.2) n (%)
  Vomiting, grade ≥3: 1 (1.5) n (%)
SAE grade 3/4, one patient, BID schedule
  AE leading to discontinuation of LXS196: hepatic failure
